# Measurements published in the METLIN SMRT retention time set (Domingo-Almenara et al. 2019).
# Experiment: gradient 5% acetonitrile 3 min, to 50% in 2 min, to 85% in 15 min, held 3 min, 100 µL/min
# Settings: column: Zorbax Extend-C18 2.1 x 50 mm; eluents: water / acetonitrile, 0.1% formic acid
# How it was run: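 The system's dead and dwell volumes were 40 μL and 900 μL, with a Zorbax Extend-C18 column (2.1 × 50 mm, 1.8 μm) run at 100 μL/min in water and acetonitrile containing 0.1% formic acid each. Pure standards were analyzed in mixtures of ~100 molecules by HPLC–quadrupole time-of-flight mass spectrometry in positive and negative ionization mode. Retention time was assigned from computationally picked, manually inspected adduct peaks.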
row,SMILES,RP-LC retention time [s]
1,CCC1Oc2ccc(S(=O)(=O)N3CCC(C(=O)NCc4ccco4)CC3)cc2NC1=O (stereo not given),795
2,COCCNC(=O)C1CCN(c2nccnc2Sc2ccccc2)CC1,764
3,Cc1noc(C)c1C(=O)N1CCCC1Cc1noc(-c2cnccn2)n1 (stereo not given),661
4,CC(C)(C)NC(=O)N1CCC2(CC1)CN(c1ccccc1)C2=O,788
5,COc1ccc2cccc(NC(=O)c3c[nH]c4ccccc34)c2n1,986
6,CC(NC(=O)Cn1cnc2cc3c(cc21)OCCO3)c1ccc2c(c1)OCCCO2 (stereo not given),646
7,CCCNC(=O)C1CCN(c2nc3ccc(-c4ccsc4)nc3s2)CC1,851
8,O=C(Nc1ccc(Nc2ccncc2)cc1)c1ccc(Nc2ccnc3ccc([N+](=O)[O-])cc23)cc1,636
9,CCc1ccc(NS(=O)(=O)c2c(C)sc(C)c2-c2cc(C(F)(F)F)on2)cc1,1240
10,O=C(c1cccn1-c1nnc(N2CCOCC2)s1)N1CCCCCC1,747
11,CC(C)C(=O)NCc1csc(C2CCCN(C(=O)c3cc(F)ccc3F)C2)n1 (stereo not given),730
12,COc1ccc(OC)c(CNC(=O)c2nnc(-c3ccc(S(=O)(=O)N(C)C)cc3)o2)c1,854
13,CSc1cccc(NC(=O)Cn2c(=O)cc(-c3nc(C4CC4)no3)c3ccccc32)c1,686
14,CCOC(=O)C1CCN(C(=O)Cn2c(N3CCOCC3)nc(C)cc2=O)CC1,620
15,CCCCOC(=O)CSc1nnc(-c2cc(OC)c(OC)c(OC)c2)o1,1000
16,Cc1cccc(OCCc2noc(C3CN(Cc4ccc(C)s4)C3)n2)c1,761
17,COC(=O)c1ccsc1NC(=O)c1cc(-c2ccccc2)on1,1170
18,Cc1nc(-c2ccc(F)cc2)sc1C(=O)N1CCC(C(C)C(=O)N2CCOCC2)CC1 (stereo not given),745
19,CCn1cccc1-c1nc(C)c(C(=O)Nc2ccc(C)c(C)c2)s1,1270
20,Cc1cccc(-c2nc(NCCCN3CCOCC3)c3ccccc3n2)c1,819
21,CCOC(=O)c1c(S(=O)(=O)N2CCC(C(=O)NCc3ccccc3)CC2)c(C)n(C)c1C,795
22,CCN(CC)CCNC(=O)c1ccc2nc(C(C)C)oc2c1,605
23,CCCn1ccc2sc(C)c(C(=O)NCc3ccc(SC)cc3)c2c1=O,919

row,SMILES,RP-LC retention time [s]
1,COc1ccccc1NC(=O)Cn1c(=O)cc(-c2nc(C3CC3)no2)c2ccccc21,1280
2,Cc1nnc(N2CCC(C(=O)N3CCC(C(N)=O)CC3)CC2)c2nn(-c3ccccc3)c(C)c12,599
3,COCc1nnc(C(=O)Nc2cccc(C(=O)NCCc3c[nH]c4ccc(OC)cc34)c2)s1,799
4,CCCCC(=O)Nc1ccc(OCc2cc(C(=O)NC3CC3)no2)cc1,798
5,CS(=O)(=O)Nc1cccc(NC(=O)c2cc(-c3cccs3)[nH]n2)c1,699
6,CCN(CC)S(=O)(=O)c1cc(-c2nnc(-c3ccc(OC)c(OC)c3)o2)ccc1Cl,1010
7,CCOc1ccc(-n2c(=O)c3sccc3n(Cc3nc(-c4ccccc4Cl)no3)c2=O)cc1,1020
8,COCCn1cc(CCNC(=O)Nc2ccccc2Cl)c2cccnc21,752
9,Cc1nc(-c2ccccc2F)sc1C(=O)NC(C)C,888
10,Cc1sc2ccn(CC(C)C)c(=O)c2c1C(=O)NCc1ccccc1F,994
11,Cc1cccc(-c2nc3sc(N4CCCCC4)nn3c2NC(=O)c2ccnn2C)c1,885
12,Cc1ccc(NC(=O)C2CCCN(S(=O)(=O)c3c[nH]c(C(=O)N4CCCCCC4)c3)C2)cc1C (stereo not given),871
13,COc1ccc(-c2csc3c(=O)n(Cc4ccc(F)cc4)cnc23)cc1,1050
14,COc1ccc(-c2cc(C(=O)N3CCN(S(=O)(=O)c4ccc(C(C)(C)C)cc4)CC3)[nH]n2)cc1,1030
15,O=C(C1CC(=O)N(c2ccc3c(c2)CCN3C(=O)C2CC2)C1)N1CCCCCC1 (stereo not given),750
16,Nc1ccc(S(=O)(=O)NCC2CCCCO2)cc1 (stereo not given),733
17,O=c1n(Cc2c(F)cccc2Cl)nc2ccc(S(=O)(=O)N3CCCC3)cn12,885
18,CCN(CC)C(=O)CC(c1cc(OC)c(OC)c(OC)c1)N1Cc2ccccc2C1=O (stereo not given),769
19,Cc1cc(C(=O)NCC2CCN(C(=O)NC(C)(C)C)CC2)c(C)o1,699
20,CCn1ncc(C(=O)N2CC(n3cc(COc4ccc(F)cc4)nn3)C2)c1C,714
21,Cn1c(=O)c2c(nc(OCCc3ccccc3)n2C)n(C)c1=O,909
22,Cc1cc(Cl)ccc1NC(=O)Cn1cnc2nc3c(cc2c1=O)CCCC3,770
23,CCC(=O)N1CCCC(c2ccnc(Nc3ccc(C)cc3)n2)C1 (stereo not given),827

row,SMILES,RP-LC retention time [s]
1,Cc1ccccc1Cc1nc2ccccc2n1CC(N)=O,570
2,CCOC(=O)c1[nH]c(C)c(CN(Cc2ccc(C)cc2)C(=O)COC)c1C,684
3,COc1ccc(OC)c(S(=O)(=O)N2[C@H]3CC[C@@H]2c2cnc(C)nc2C3)c1,703
4,CCn1cc(C2=CCN(C(=O)Cc3ccc(F)cc3)CC2)c2cccnc21,876
5,O=C(O)c1ccc(Nc2c(-c3cccc(Br)c3)nc3cnccn23)cc1,736
6,CN(C)c1ccc(CNC(=O)Cc2c[nH]c3ncccc23)cc1,640
7,CCn1nc(CNC(=O)c2cnccn2)c2ccccc21,718
8,CCc1cccc(C)c1NC(=O)Cn1nc(N2CCC(C)CC2)c2ccccc2c1=O,1160
9,COCc1noc([C@@H]2CN(Cc3ccc(Br)o3)C[C@H]2C(N)=O)n1,565
10,Cc1ccc(-n2c(=O)n(CC(=O)NCCCN3CCOCC3)c3cccnc32)cc1,591
11,O=C(O)CCc1conc1-c1cccc(F)c1,729
12,Fc1ccccc1-c1noc(-c2nc(-c3cnccn3)no2)n1,877
13,CCN1C(=O)c2cc(C(=O)NCCCc3ccccc3)nn2CC1(C)C(=O)NC1CCCC1 (stereo not given),845
14,COc1ccc(NC(=O)CSc2nc(N3CCCCC3)nc3ccccc23)cc1,695
15,CCn1cnc2ccc(-c3noc(-c4ccccc4)n3)cc21,758
16,CCNC(=O)C1CCN(S(=O)(=O)c2cc(-c3noc(C)n3)cs2)CC1,713
17,COc1ccc(NC(=O)c2cc3c(s2)CN(C2CCCC2)C3)c(OC)c1,616
18,O=C(CCNc1c(-c2cccc(F)c2)nc2cnccn12)NCc1ccc(Cl)cc1,785
19,COCc1nnc(C(=O)Nc2ccc(C(=O)NCCc3c[nH]c4ccc(OC)cc34)cc2)s1,790
20,O=C(CC1CCCN(c2cn[nH]c(=O)c2)C1)N1CCSCC1 (stereo not given),617
21,O=C(NCc1ccc(Br)cc1)c1ccc(-c2cncnc2)nc1,765
22,CCCN1CCN(CCCNC(=O)C2CCCN(c3nc4cccnc4s3)C2)CC1 (stereo not given),573
23,Cc1noc(C)c1S(=O)(=O)N1CCCC(c2nc(CNC(=O)C(C)C)cs2)C1 (stereo not given),796

row,SMILES,RP-LC retention time [s]
1,CCOc1ccccc1CNC(=O)C1CCN(c2nc(CC)nc3csc(C)c23)CC1,1030
2,Cc1ccc(Oc2nccnc2N2CCCC(C(=O)Nc3ccc(N4CCOCC4)cc3)C2)cc1 (stereo not given),956
3,CCN(CC)c1ncnc2c(-c3ccccc3)cn(CC(=O)N3CCCC3)c12,674
4,CCc1cccc(Nc2ncccc2S(N)(=O)=O)c1,889
5,COc1ccc(OC)c2sc(NCc3ccccn3)nc12,585
6,Cc1cnc(C)n1C1CCN(C(=O)c2cccn2C)C1 (stereo not given),580
7,CCC(=O)n1nc(-c2ccc(C)c(C)c2)nc1N,923
8,COc1ccc(-n2c(=O)n(C)c(=O)c3cc(C(=O)Nc4cc(F)ccc4C)cnc32)cc1,893
9,CC(C)Cn1c(=O)c(-c2ccc(C(=O)N3CCN(C)CC3)cc2)nc2ccccc21,670
10,O=C(CN1CCc2[nH]c3c(F)c(Cl)ccc3c(=O)c2C1)Nc1cc(F)ccc1F,691
11,CCOC(=O)C1=C(C)NC2=C(C(=O)c3ccccc32)C1c1ccccc1OCC (stereo not given),961
12,O=C(Cc1csc2nc(-c3ccccc3)cn12)NCCC1=CCCCC1,864
13,CCOC(=O)CNC(=O)N1CCN(c2nc3ccccc3n2Cc2ccccc2)CC1,656
14,CCn1nc(CNC(=O)C2CCC2)c2ccccc21,748
15,COc1ccc(-c2nc(C3CC(=O)N(c4ccc(OC)c(OC)c4)C3)no2)cc1F (stereo not given),853
16,O=C(Nc1cccc(Cl)c1)Nc1nc(CC(=O)N2CCc3ccccc32)cs1,978
17,COc1ccc(NC(=O)c2ccc(C(=N)N(C)C)cc2)c(C(=O)Nc2ccc(Cl)cn2)c1,725
18,COc1ccccc1NC(=O)NC1CCN(c2ccc(F)c(C)c2)C1=O (stereo not given),833
19,O=C1CO[C@@H](C(=O)O)[C@H](c2ccccc2)N1,576
20,COc1ccc(-c2nc(Cn3ccn4nc(-c5ccccc5OC)cc4c3=O)c(C)o2)cc1,1100
21,Cc1nnc(C2CCCN(C(=O)COc3ccccc3)C2)s1 (stereo not given),653
